Experimental data reported in patent US8815857B2 (Boehringer Ingelheim International GmbH, priority 2011, dated 2014).
In brackets after ≈: the same amount, converted by molar mass.

Key:
[1] = molecular target: T1, Recombinant human soluble guanylate cyclase (sGC), alpha 1 / beta 1 subunits, heme-free (Homo sapiens, UniProt Q02108+Q02153); experiment: Molecular assay: cGMP formation by heme-free recombinant sGC (CisBio cGMP detection kit); format: biochemical; settings: 300 pM heme-free sGC, 37° C., 60 min, cGMP readout; read-out: EC50 nM, Activity of Compounds in Molecular Assay
T1 construct: histidine tag (C); made in house; host or cells: Sf9 insect cells (baculovirus coinfection)
T1 sequence (Q02108 1-690 partner): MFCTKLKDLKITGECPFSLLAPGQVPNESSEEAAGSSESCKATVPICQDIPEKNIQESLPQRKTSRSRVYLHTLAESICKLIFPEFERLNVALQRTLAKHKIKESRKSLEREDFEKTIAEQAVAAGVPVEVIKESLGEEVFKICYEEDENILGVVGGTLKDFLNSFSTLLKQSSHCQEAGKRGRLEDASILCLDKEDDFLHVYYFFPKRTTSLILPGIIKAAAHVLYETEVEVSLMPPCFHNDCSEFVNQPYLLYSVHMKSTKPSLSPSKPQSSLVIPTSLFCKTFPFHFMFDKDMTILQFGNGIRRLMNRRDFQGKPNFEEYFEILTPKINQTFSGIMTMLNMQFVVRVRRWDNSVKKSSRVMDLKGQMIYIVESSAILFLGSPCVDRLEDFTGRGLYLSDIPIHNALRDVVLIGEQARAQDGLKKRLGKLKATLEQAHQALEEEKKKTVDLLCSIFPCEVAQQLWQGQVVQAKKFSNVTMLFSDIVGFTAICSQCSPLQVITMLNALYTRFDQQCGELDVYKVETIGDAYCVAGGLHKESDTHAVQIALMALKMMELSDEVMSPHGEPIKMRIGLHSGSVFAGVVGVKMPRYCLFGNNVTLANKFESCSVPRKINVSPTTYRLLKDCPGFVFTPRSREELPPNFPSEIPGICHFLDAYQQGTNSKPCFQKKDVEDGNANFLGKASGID
T1 sequence (Q02153 1-619): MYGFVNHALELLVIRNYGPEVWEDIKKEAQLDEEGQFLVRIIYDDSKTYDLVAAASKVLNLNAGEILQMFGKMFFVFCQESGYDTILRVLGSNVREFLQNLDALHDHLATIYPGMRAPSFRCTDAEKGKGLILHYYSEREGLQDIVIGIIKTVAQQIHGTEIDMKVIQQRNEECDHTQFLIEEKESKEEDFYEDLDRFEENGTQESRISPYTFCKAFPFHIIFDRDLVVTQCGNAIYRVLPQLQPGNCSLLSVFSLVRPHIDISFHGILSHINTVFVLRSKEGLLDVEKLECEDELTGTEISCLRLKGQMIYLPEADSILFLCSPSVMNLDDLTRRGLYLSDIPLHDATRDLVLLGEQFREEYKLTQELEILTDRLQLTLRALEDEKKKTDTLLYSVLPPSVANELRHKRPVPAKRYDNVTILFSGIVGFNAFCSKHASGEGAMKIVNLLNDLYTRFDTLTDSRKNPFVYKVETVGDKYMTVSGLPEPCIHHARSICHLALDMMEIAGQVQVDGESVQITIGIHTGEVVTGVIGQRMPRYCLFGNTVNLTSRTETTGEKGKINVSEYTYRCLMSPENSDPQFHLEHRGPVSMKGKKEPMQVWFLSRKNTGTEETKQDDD
Procedure, shortened: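 Heme-free His-tagged sGC (Sf9-expressed, Tween 20-treated lysate) at 300 pM incubated with compounds (1% DMSO) for 60 min at 37° C in MOPS pH 6.8 with 50 nM GTP, IBMX, TCEP. cGMP quantified by HTRF against calibration curve; EC50 from combined undiluted/diluted values.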

physchem = settings: kinetic from dmso stock
[2] = molecular target: T2, human soluble guanylate cyclase alpha 1 and beta 1 subunits (sGC) stably expressed in Chinese hamster ovary cells (Homo sapiens, UniProt Q02108+Q02153); experiment: sGC cellular activator assay: cGMP in CHO cells expressing human sGC, preincubated with ODQ; format: cell-based; settings: 40 microM ODQ preincubation, 30 min at room temperature, presence or absence of 50% human serum not given, read-out: EC50 nM, Activity of Compounds in Cellular Assay
T2 construct: expressed in transfected cells; host or cells: Chinese hamster ovary cells, stably transfected
T2 sequence (Q02108 1-690 partner): T1 sequence (Q02108 1-690 partner)
T2 sequence (Q02153 1-619): T1 sequence (Q02153 1-619)
Procedure, shortened: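 EC50 values derive from HTRF cGMP measurement after test compounds act for thirty minutes at room temperature, with or without 50% human serum. Before dosing, the sGC-transfected CHO cells spend one hour with the inhibitor ODQ (40 microM) in IBMX- and 0.1% BSA-containing buffer.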

[3] = Assessment of solubility: HT solubility in pION buffer, UV spectrophotometry; settings: pION system solution buffer, kinetic from dmso stock, 16-19 h incubation, 1.0% DMSO
[4] = pH 4.5, pH 4.5, aqueous buffer, Solubility (pH 4.5), pH 4.5 buffer
[5] = pH 7.4, pH 7.4, aqueous buffer, Solubility (pH 7.4), pH 7.4 buffer

Row | EC50 [1] [nM] | EC50 [2] [nM] | solubility [3, 4] [µg/mL] | solubility [3, 5] [µg/mL] | Structure (SMILES) | solubility (physchem; pH 4.5, aqueous buffer, Solubility (pH 4.5)) [µg/mL] | solubility (physchem; pH 7.4, aqueous buffer, Solubility (pH 7.4)) [µg/mL]
1 | 1000 | 300 | 2.4 (≈ 4.11 µM) | 41 (≈ 70.2 µM) | Cc1ccc(OCc2ccc(CN3CCS(=O)(=O)CC3)cc2C)c(-c2csc(N3CCC(CC(=O)O)CC3)n2)c1 [Compound 219] | – | –
2 | 6 | 7.9 | 3.3 (≈ 5.65 µM) | > 58 | Cc1ccc(OCc2ccc(CN3CCS(=O)(=O)CC3)cc2C)c(-c2csc(N3CCCC(C(=O)O)CC3)n2)c1 (stereo not drawn) [Compound 234] | – | –
3 | 2900 | 650 | 2.7 (≈ 5.06 µM) | > 53 | Cc1ccc(OCc2ccc(C(=O)N3CCCCC3)cc2C)c(-c2csc(N[C@@H]3CC[C@H](C(=O)O)C3)n2)c1 [Compound 239] | – | –
4 | 45 | 19 | 3.7 (≈ 6.68 µM) | 21 (≈ 37.9 µM) | Cc1cc(C(=O)N2CCCCC2)ccc1COc1ccc(Cl)cc1-c1csc(N2CCC(C(=O)O)CC2)n1 [Compound 271] | – | –
5 | 120 | 110 | 14 (≈ 25.2 µM) | > 160 | Cc1cc(CN2CCS(=O)(=O)CC2)ccc1COc1ccccc1-c1csc(N2CCC(C(=O)O)CC2)n1 [Compound 272] | – | –
6 | 320 | 570 | 7.3 (≈ 12.6 µM) | > 82 | Cc1cc(CN2CCS(=O)(=O)CC2)ccc1COc1ccc(C#N)cc1-c1csc(N2CCC(C(=O)O)CC2)n1 [Compound 273] | – | –
7 | 1600 | 600 | 0.95 (≈ 1.74 µM) | > 54 | Cc1cc(C(=O)N2CCCCC2)ccc1COc1ccc(C#N)cc1-c1csc(N2CCC(C(=O)O)CC2)n1 [Compound 274] | – | –
8 | 1800 | 670 | 0.6 (≈ 1 µM) | 4 (≈ 6.67 µM) | Cc1cc(CN2CCS(=O)(=O)CC2)ccc1COc1ccc(F)cc1-c1csc(N2CC3CCC(C2)C3C(=O)O)n1 (stereo not drawn) [Compound 275] | – | –
9 | 74 | 16 | 21 (≈ 35.5 µM) | 41 (≈ 69.3 µM) | Cc1ccc(OCc2ccc(CN3CCOCC3)cc2OC(F)(F)F)c(-c2csc(N3CCC(C(=O)O)CC3)n2)c1 [Compound 277] | – | –
10 | 260 | 170 | > 56 | > 56 | Cc1ccc(OCc2ccc(CN3CCN4CCCC4C3)cc2C)c(-c2csc(N3CCC(C(=O)O)CC3)n2)c1 (stereo not drawn) [Compound 350] | – | –
11 | 14 | 76 | 22 (≈ 36.7 µM) | > 59 | Cc1ccc(OCc2ccc(CN3CCN(C(=O)C4CC4)CC3)cc2C#N)c(-c2csc(N3CCC(C(=O)O)CC3)n2)c1 [Compound 352] | – | –
12 | 470 | 140 | > 53 | 38 (≈ 70.7 µM) | Cc1ccc(OCc2ccc(CN3CCC(F)CC3)cc2C)c(-c2csc(N3CCC(C(=O)O)CC3)n2)c1 [Compound 353] | – | –

Row | Structure (SMILES) | EC50 [1] [nM] | EC50 [2] [nM] | solubility [3, 4] [µg/mL] | solubility [3, 5] [µg/mL] | solubility (physchem; pH 4.5, aqueous buffer, Solubility (pH 4.5)) [µg/mL] | solubility (physchem; pH 7.4, aqueous buffer, Solubility (pH 7.4)) [µg/mL]
13 | Cc1ccc(OCc2ccc(CN3CCN(C(=O)C4CC4)CC3)cc2C)c(-c2csc(N3CCC(C(=O)O)CC3)n2)c1 [Compound 198] | 20 | – | – | – | 37 (≈ 62.8 µM) | > 58
14 | Cc1ccc(OCc2ccc(CN3CCS(=O)(=O)CC3)cc2C)c(-c2csc(N3C[C@H]4C[C@@H](C3)[C@H]4C(=O)O)n2)c1 [Compound 235] | 47 | 57 | 8.1 (≈ 13.9 µM) | > 58 | – | –
15 | Cc1ccc(OCc2ccc(C(=O)N3CCCCC3)cc2C)c(-c2csc(N3C[C@H]4C[C@@H](C3)[C@H]4C(=O)O)n2)c1 [Compound 236] | 190 | 79 | 6.6 (≈ 12.1 µM) | > 54 | – | –
16 | Cc1ccc(OCc2ccc(CN3CCOCC3)cc2C)c(-c2csc(N3C[C@H]4C[C@@H](C3)[C@H]4C(=O)O)n2)c1 [Compound 237] | 240 | 130 | > 53 | > 53 | – | –
